In test [1] the test system is Sarcoma 180J. Kind of test: Sarcoma 180J Model for Assessment of Tumor Rejection. In kind it is in vivo, CD-1 mice (female). Particulars: for %ILS (percent life span): day 1 after 10^6 S-180J cells i.p., observed until death or 40 days, TWEEN 80/glycerol aqueous suspension; for numbers of 40 day survivors: six mice per group. The method, then: Sarcoma 180J Model for Assessment of Tumor Rejection
Six female CD-1 mice (20-25 g) per group received 10^6 S-180J cells (5-8 days old) intraperitoneally (i.p.) on day O. The animals then received formulated drug (0.1 ml) at the desired dose on day 1 following tumor cell injection. The animals were observed until death or 40 days, whichever occurred first. Results using compounds 1-I, 2-I, 3I and 4I are expressed as percent life span (% ILS).
^ a compounds were formulated in TWEEN 80/glycerol aqueous
^b Numbers in parenthesis are numbers of 40 day survivors.

Test [2] has as its system B-16 cells. Kind of test: Peritoneal Exudate Cell Mediated Cytotoxicity in Vitro (macrophages from drug-injected mice). Particulars: Mus musculus, B16, effector:target 15:1, 24 hours at 37°, read-out: % Cytotoxicity (percent release drug-treated minus vehicle treated); for cytotoxicity at 1 mg/kg: 1 mg/kg injected to mice; for cytotoxicity at 5 mg/kg: 5 mg/kg injected to mice; for cytotoxicity at 25 mg/kg: 25 mg/kg injected to mice. In kind it is cell-based. As to the method:
Peritoneal Exudate Cell Mediated Cytotoxicity in Vitro
Peritoneal exudate cells (PEC) from normal mice injected with immune potentiators or drug vehicle were harvested by gentle lavage with 3 ml cold RPMI 1640 medium (Grand Island Biological Co., N.Y.) supplemented with 5 units of heparin per ml of medium. Macrophages were identified morphologically, counted, and adjusted to 7.5×10^5 cells per ml of tissue culture medium; 0.2 ml volumes were added to microtiter wells containing 10^4 B-16 cells with ^125 IUDR label (effector: target cell ratio=15:1). After 24 hours at 37° in 5% CO2, supernatants were decanted and the adherent cells washed 3 times with pre-warmed RPMI 1640; the supernatant and washings were pooled and retained for counting. The adherent cells were treated with 1% sodium dodecyl sulfate (SDS) at room temperature for 30 minutes. The SDS-treated cells were harvested and the cells washed 3 times with RPMI 1640; cells and washings were pooled for counting. Supernatants and cells were counted in a Searle 1185 gamma counter. Results were expressed as: [formula]
The table below gives the percent cytotoxicity for 1-I, 2-I and 3-I wherein Percent Cytotoxicity equals (Percent release from drug-treated) minus (Percent release from vehicle treated).

For test [3], the system named is encephalomyocarditis (EMC) virus. Put plainly: Prophylactic use against encephalomyocarditis (EMC) viral infection in mice. It counts as in vivo, mice (female albino). Particulars: single intraperitoneal, 18-24 hours before EMC challenge, tenth day after challenge, average of 2 runs. The method, then:
Prophylactic use of compounds (1-I), (2-I) and (3-I) against infection by encephalomyocardis viral infection in mice
Three groups of ten female albino micce (20-25 g. body weight) were given single 0.5 ml. intraperitoneal injections containing dosage levels of 1.5, 5, and 15 mg. of the appropriate compound/kg. body weight, respectively. A fourth control group was given no such injection. Eighteen to twenty-four hours later all four groups were challenged with a 0.2 ml. subcutaneous injection containing 20-30 times the LD50, the dosage level causing a 50% death rate in ten days, of encephalomyocarditis (EMC) virus. The following relative average survival rates were found from an average of 2 such runs for compounds 1-I, 2-I and 3-I.
Antiviral activity is expressed as the average relative survival (Sr) of 2 runs of experimental groups compared to the controls on the tenth day after challenge. Sr is defined by the formula [formula] wherein Sr=relative survival;
Sx =percent survival after ten days in experimental group;
Xi =number of survivors on the ith day in experimental group;
ei =number of survivors on the ith day in control group.

Data on four molecules can be found in patent publication US4211794A, “N,N-Disubstituted aminomethylphenylethanolamines” (Pfizer Inc., priority 1979, dated 1980).

As to `CCCCCCCCCCCCCCCCN(CCCCCCCCCCCCCCCC)Cc1cccc(C(O)CN)c1` (stereo not shown) [Compound 4-I, 2-[meta-N,N-di-n-hexadecylaminomethylphenyl]ethanolamine], the “%ILS (percent life span)” value in test [1] (5 mg/kg) turned out to be 125%; in test [1] (15 mg/kg), 181%; in test [1] (50 mg/kg) it was 212%. Also, the “numbers of 40 day survivors” value in test [1] (15 mg/kg) was determined as 4; in test [1] (50 mg/kg), 6.
Take `CCCCCCCCCCCCCCCCN(CCCCCCCCCCCCCCCC)Cc1cccc(C(O)CNC(C)C)c1` (stereo not shown) [Compound 3-I, N-isopropyl-2-[meta-N,N-di-n-hexadecylaminomethylphenyl]ethanolamine]: the cytotoxicity at 1 mg/kg in test [2] turned out to be 42.4%. Besides, the cytotoxicity at 5 mg/kg in test [2] came to 35.1%. Besides, the cytotoxicity at 25 mg/kg in test [2] was 33.4%. Also, the entries for the “Average Relative Survival (Sr)” value in test [3] (1.5 mg/kg), in test [3] (5 mg/kg) and in test [3] (15 mg/kg) were 27, 54 and 87.5, respectively. For the same molecule, the figures for the “%ILS (percent life span)” value in test [1] (5 mg/kg), in test [1] (15 mg/kg) and in test [1] (50 mg/kg) were 154%, 185% and 212%, respectively. Besides, the “numbers of 40 day survivors” value in test [1] (5 mg/kg) is 2; in test [1] (15 mg/kg), 4; in test [1] (50 mg/kg), 6.
Take `CCCCCCCCCCCCCCCCN(CCCCCCCCCCCCCCCC)Cc1cccc(C(O)CNC(C)(C)C)c1` (stereo not shown) [Compound 2-I, N-t-butyl-2-[meta-N,N-di-n-hexadecylamino-methylphenyl]ethanolamine]: the cytotoxicity at 1 mg/kg in test [2] came out at 31.2%. The cytotoxicity at 5 mg/kg in test [2] came out at 33.6%. Besides, the cytotoxicity at 25 mg/kg in test [2] is 27.2%. Moreover, the “Average Relative Survival (Sr)” value in test [3] (1.5 mg/kg) was determined as 42.5; in test [3] (5 mg/kg), 62.5; in test [3] (15 mg/kg), 65.5. Besides, the “%ILS (percent life span)” value in test [1] (5 mg/kg) came to 154%; in test [1] (15 mg/kg), 134%; in test [1] (50 mg/kg), 160%. Moreover, the “numbers of 40 day survivors” value was 1 in test [1] (5 mg/kg) and 2 in test [1] (50 mg/kg).
Consider `CCCCCCCCCCCCCCCCN(CCCCCCCCCCCCCCCC)Cc1cccc(C(O)CNCC)c1` (stereo not shown) [Compound 1-I, N-ethyl-2-[meta-N,N-di-n-hexadecylaminomethylphenyl]ethanolamine], for which the cytotoxicity at 1 mg/kg in test [2] amounted to 35.7%. The cytotoxicity at 5 mg/kg in test [2] came to 25.6%. In addition, the cytotoxicity at 25 mg/kg in test [2] stood at 23.8%. Besides, the “Average Relative Survival (Sr)” value in test [3] (1.5 mg/kg) came to 24.5; in test [3] (5 mg/kg), 65.5; in test [3] (15 mg/kg) it was 70. Also, the entries for the “%ILS (percent life span)” value in test [1] (5 mg/kg), in test [1] (15 mg/kg) and in test [1] (50 mg/kg) were 150%, 210% and 235%, respectively. The “numbers of 40 day survivors” value in test [1] (5 mg/kg) is 1; in test [1] (15 mg/kg) it was 4; in test [1] (50 mg/kg), 5.
